Reference: US9428455B2, “Process for annealing amorphous atorvastatin” (Pfizer Inc., priority 2005, dated 2016)
Counter-ions that a name gives are not always drawn.

Type: physicochemical
Procedure: The amorphous atorvastatin calcium was loaded into 20 ml glass vials (approximately 1 g per vial), and heated at 100±5° C. for 1, 6, and 18 hours in an oven. After heating, the powder was transferred from the vials to 15 ml amber screw-cap bottles, and set-up on stability at 50° C./20% RH. In addition, unannealed amorphous atorvastatin calcium, which was loaded in 15 ml amber screw-cap bottles, was placed on stability as a control.
The annealed amorphous atorvastatin calcium was analyzed for impurities and atorvastatin degradation products using HPLC, by evaluating the ratio of peak integration compared to the total integrated peak areas. […] The material was analyzed by HPLC (Zorbax SB C8 column, 25.0 cm×4.6 mm, HPLC: Hewlett Packard 1100 series, 20 μl injection volume, flow of 1.5 mL/min). […]
Stability data obtained for three annealed samples and the control sample are graphically illustrated in FIGS. 1 to 4. […] In order to express stabilization by annealing in a more quantitative term, relative degradation rate constants, krel, were determined from the data presented in FIGS. 1 to 4. The krel were calculated using Eq. 1: krel=(k/k0)*100% Eq. 1 where k is the zero order rate constant for annealed samples, and k0 is the zero order rate constant for the control sample; k and k0 were determined from the data presented in FIGS. 1 to 4.

## CC(C)c1c(C(=O)Nc2ccccc2)c(-c2ccccc2)c(-c2ccc(F)cc2)n1CC[C@@H](O)C[C@@H](O)CC(=O)O (relative stereo) [amorphous atorvastatin calcium, [R—(R*,R*)]-2-(4-fluorophenyl)-β,δ-dihydroxy-5-(1-methylethyl)-3-phenyl-4-[(phenylamino)carbonyl]-1H-pyrrole-1-heptanoic acid calcium salt (2:1) trihydrate]
  Relative degradation rate for total degradation products, less than in the control: 34%
